Data on 22 compounds can be found in patent US20090062251A1, “Novel Compounds 002” (ASTRAZENECA AB, priority 2007, published 2009).

The target in assay [1] is T1, Human CB1 receptor (hCB1) (Homo sapiens, UniProt P21554).
T1 construct: purchased Receptor Biology
Kind of assay: hCB1 receptor binding (3H-CP55,940 displacement). To be noted: hCB1 membranes, Ki=IC50/(1+[rad]/Kd). The procedure: hCB1 and hCB2 Receptor Binding
Human CB1 receptor from Receptor Biology (hCB1) or human CB2 receptor from BioSignal (hCB2) membranes are thawed at 37° C., passed 3 times through a 25-gauge blunt-end needle, diluted in the cannabinoid binding buffer (50 mM Tris, 2.5 mM EDTA, 5 mM MgCl2, and 0.5 mg/mL BSA fatty acid free, pH 7.4) and aliquots containing the appropriate amount of protein are distributed in 96-well plates. […] The total and non-specific binding are determined in the absence and presence of 0.2 μM of HU210 respectively. The plates are vortexed and incubated for 60 minutes at room temperature, filtered through Unifilters GF/B (presoaked in 0.1% polyethyleneimine) with the Tomtec or Packard harvester using 3 mL of wash buffer (50 mM Tris, 5 mM MgCl2, 0.5 mg BSA pH 7.0). The filters are dried for 1 hour at 55° C. The radioactivity (cpm) is counted in a TopCount (Packard) after adding 65 μl/well of MS-20 scintillation liquid.
Based on the above assays, the dissociation constant (Ki) for a particular compound of the invention towards a particular receptor is determined using the following equation:
[rad] is a standard or reference radioactive ligand concentration at that moment; and
Kd is the dissociation constant of the radioactive ligand towards the particular receptor.

Assay [2] has as its target T1, Human CB1 receptor (hCB1). The assay is described as follows: hCB1 GTPγS binding. In kind it is biochemical. To be noted: for EC50: hCB1 membranes, GTPγ35S, 10-point dose-response; for Emax: maximal stimulated binding determined with 10 μM Win 55,212-2. The procedure: hCB1 and hCB2 GTPγS Binding
Human CB1 receptor from Receptor Biology (hCB1) or human CB2 receptor membranes (BioSignal) are thawed at 37° C., passed 3 times through a 25-gauge blunt-end needle and diluted in the GTPγS binding buffer (50 mM Hepes, 20 mM NaOH, 100 mM NaCl, 1 mM EDTA, 5 mM MgCl2, pH 7.4, 0.1% BSA). […] The basal and maximal stimulated binding is determined in absence and presence of 1 μM (hCB2) or 10 μM (hCB1) Win 55, 212-2 respectively. The membranes are pre-incubated for 5 minutes with 56.25 μM (hCB2) or 112.5 μM (hCB1) GDP prior to distribution in plates (15 μM (hCB2) or 30 μM (hCB1) GDP final). The plates are vortexed and incubated for 60 minutes at room temperature, filtered on Unifilters GF/B (presoaked in water) with the Tomtec or Packard harvester using 3 ml of wash buffer (50 mM Tris, 5 mM MgCl2, 50 mM NaCl, pH 7.0). The filters are dried for 1 hour at 55° C. The radioactivity (cpm) is counted in a TopCount (Packard) after adding 65 μl/well of MS-20 scintillation liquid. Antagonist reversal studies are done in the same way except that (a) an agonist dose-response curve is done in the presence of a constant concentration of antagonist, or (b) an antagonist dose-response curve is done in the presence of a constant concentration of agonist.

T1 sequence (P21554 whole entry): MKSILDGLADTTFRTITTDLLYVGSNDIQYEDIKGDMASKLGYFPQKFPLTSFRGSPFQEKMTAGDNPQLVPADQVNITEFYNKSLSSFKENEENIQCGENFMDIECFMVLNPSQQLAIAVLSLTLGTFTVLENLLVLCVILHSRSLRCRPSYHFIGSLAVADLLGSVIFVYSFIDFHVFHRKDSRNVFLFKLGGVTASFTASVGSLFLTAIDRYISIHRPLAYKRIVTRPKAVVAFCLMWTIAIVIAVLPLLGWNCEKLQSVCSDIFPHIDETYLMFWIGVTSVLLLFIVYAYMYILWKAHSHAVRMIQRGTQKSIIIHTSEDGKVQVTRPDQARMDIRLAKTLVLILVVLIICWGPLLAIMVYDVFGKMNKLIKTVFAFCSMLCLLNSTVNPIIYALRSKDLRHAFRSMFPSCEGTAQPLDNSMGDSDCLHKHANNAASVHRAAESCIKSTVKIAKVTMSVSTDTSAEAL

Turning to `CCNC(=O)CCCN(C)C(=O)c1ccc2c(c1)c1c(n2CCF)CCC(C2CCOCC2)C1` (stereo not drawn) [N-[3-(ethylcarbamoyl)propyl]-9-(2-fluoroethyl)-N-methyl-6-(oxan-4-yl)-5,6,7,8-tetrahydrocarbazole-3-carboxamide], the Ki in assay [1] is 0.237 µM. Besides, in assay [2], the 50% effective concentration (EC50) stood at 0.372 µM and the Emax was 109%.
The matching figures for `Cn1c2c(c3cc(C(=O)N4CC[C@H](C(=O)NCC(F)F)C4)ccc31)CC(C1CCOCC1)CC2` (stereo partly drawn) [(3S)—N-(2,2-difluoroethyl)-1-[9-methyl-6-(oxan-4-yl)5,6,7,8-tetrahydrocarbazole-3-carbonyl]pyrrolidine-3-carboxamide]: 0.0495 µM, 0.0826 µM and 125%.
The matching figures for `CN(CC(=O)NCCF)C(=O)c1ccc2c(c1)c1c(n2C)CCC(C2CCOCC2)C1` (stereo not drawn) [N-(2-fluoroethylcarbamoylmethyl)-N,9-dimethyl-6-(oxan-4-yl)-5,6,7,8-tetrahydrocarbazole-3-carboxamide]: 0.291 µM, 0.721 µM and 110%.
Regarding `CCC(=O)NC1CCCN(C(=O)c2ccc3c(c2)c2c(n3C)CCC(C3CCOCC3)C2)C1` (stereo not drawn) [N-[1-[9-methyl-6-(oxan-4-yl)5,6,7,8-tetrahydrocarbazole-3-carbonyl]-3-piperidyl]propanamide], the affinity in assay [1] corresponds to a Ki of 0.0632 µM. In assay [2], this compound returned a concentration giving a half-maximal response (EC50) of 0.263 µM and an Emax of 122%.
In turn, `CCNC(=O)CCCN(C)C(=O)c1ccc2c(c1)c1c(n2C)CCC(C2CCOCC2)C1` (stereo not drawn) [N-[3-(ethylcarbamoyl)propyl]-N,9-dimethyl-6-(oxan-4-yl)-5,6,7,8-tetrahydrocarbazole-3-carboxamide] came in with a Ki in assay [1] of 0.0366 µM. Further, in assay [2], the EC50 came to 0.0635 µM and the Emax worked out at 111%.
On to `CC1CCN(C(=O)c2ccc3c(c2)c2c(n3C)CCC(C3CCCCC3)C2)CC1` (stereo not drawn) [(6-cyclohexyl-9-methyl-5,6,7,8-tetrahydrocarbazol-3-yl)-(4-methyl-1-piperidyl)methanone], for which the Ki in assay [1] came out at 0.0295 µM. For the same compound, in assay [2], the EC50 was 0.0651 µM and the Emax was 106%.
For `CCS(=O)(=O)n1c2c(c3cc(C(=O)N4CCC(C)CC4)ccc31)CC(C1CCCCC1)CC2` (stereo not drawn) [(6-cyclohexyl-9-ethylsulfonyl-5,6,7,8-tetrahydrocarbazol-3-yl)-(4-methyl-1-piperidyl)methanone], the Ki in assay [1] is 0.0152 µM. In assay [2], this compound registered a 50% effective concentration (EC50) of 0.02 µM and an Emax of 107%.
The matching figures for `CCN(CC(=O)N[C@H]1CCOC1)C(=O)c1ccc2c(c1)c1c(n2C)CCC(C2CCOCC2)C1` (stereo partly drawn) [N-ethyl-9-methyl-6-(oxan-4-yl)-N-[[(3S)-oxolan-3-yl]carbamoylmethyl]-5,6,7,8-tetrahydrocarbazole-3-carboxamide]: 0.0581 µM, 0.1 µM and 122%.
In assay [1], `CCNC(=O)[C@H]1CCN(C(=O)c2ccc3c(c2)c2c(n3C)CCC(C3CCOCC3)C2)C1` (stereo partly drawn) [(3S)—N-ethyl-1-[9-methyl-6-(oxan-4-yl)5,6,7,8-tetrahydrocarbazole-3-carbonyl]pyrrolidine-3-carboxamide] had a Ki of 0.0699 µM. In assay [2], this compound came in with an EC50 of 0.103 µM and an Emax of 122%.
In assay [1], `C[C@H](C(=O)NCCF)N(C)C(=O)c1ccc2c(c1)c1c(n2C)CCC(C2CCOCC2)C1` (stereo partly drawn) [N-[(1R)-1-(2-fluoroethylcarbamoyl)ethyl]-N,9-dimethyl-6-(oxan-4-yl)-5,6,7,8-tetrahydrocarbazole-3-carboxamide] displayed a Ki of 0.157 µM. In assay [2], this compound displayed an EC50 of 0.353 µM and an Emax of 107%.
Regarding `CCS(=O)(=O)n1c2c(c3cc(C(=O)N(C)CC(=O)NC4CC4)ccc31)CC(C1CCOCC1)CC2` (stereo not drawn) [N-(cyclopropylcarbamoylmethyl)-9-ethylsulfonyl-N-methyl-6-(oxan-4-yl)-5,6,7,8-tetrahydrocarbazole-3-carboxamide], the Ki in assay [1] turned out to be 0.0181 µM. In assay [2], this compound showed an EC50 of 0.0188 µM and an Emax of 116%.
As to `CN(CC(=O)NC1CC1)C(=O)c1ccc2c(c1)c1c(n2S(C)(=O)=O)CCC(C2CCCCC2)C1` (stereo not drawn) [6-cyclohexyl-N-(cyclopropylcarbamoylmethyl)-N-methyl-9-methylsulfonyl-5,6,7,8-tetrahydrocarbazole-3-carboxamide], the Ki in assay [1] was found to be 0.0079 µM. In assay [2], this compound registered an EC50 of 0.0313 µM and an Emax of 111%.
In turn, `CC1CCN(C(=O)c2ccc3c(c2)c2c(n3S(C)(=O)=O)CCC(C3CCCCC3)C2)CC1` (stereo not drawn) [(6-cyclohexyl-9-methylsulfonyl-5,6,7,8-tetrahydrocarbazol-3-yl)-(4-methyl-1-piperidyl)methanone] yielded a Ki in assay [1] of 0.0753 µM. In assay [2], this compound returned an EC50 of 0.277 µM and an Emax of 89%.
The matching figures for `Cn1c2c(c3cc(C(=O)N4CCC(C(=O)NC5CC5)C4)ccc31)CC(C1CCOCC1)CC2` (stereo not drawn) [N-cyclopropyl-1-[9-methyl-6-(oxan-4-yl)5,6,7,8-tetrahydrocarbazole-3-carbonyl]pyrrolidine-3-carboxamide]: 0.026 µM, 0.0185 µM and 121%.
In assay [1], `CCNC(=O)CN(CC)C(=O)c1ccc2c(c1)c1c(n2C(=O)N(C)C)CCC(C2CCOCC2)C1` (stereo not drawn) [N-ethyl-N-(ethylcarbamoylmethyl)-N′,N′-dimethyl-6-(oxan-4-yl)-5,6,7,8-tetrahydrocarbazole-3,9-dicarboxamide] registered an inhibition constant (Ki) of more than 3.48 µM. Also, in assay [2], the EC50 was more than 30 µM and the Emax was more than 42%.
In assay [1], `Cn1c2c(c3cc(C(=O)N4CCC(NC(=O)C5CC5)CC4)ccc31)CC(C1CCOCC1)CC2` (stereo not drawn) [N-[1-[9-methyl-6-(oxan-4-yl)5,6,7,8-tetrahydrocarbazole-3-carbonyl]-4-piperidyl]cyclopropanecarboxamide] showed a Ki of more than 3.48 µM. In assay [2], the EC50 is more than 30 µM and the Emax is more than 30%.
As for `CCn1c2c(c3cc(C(=O)N4CCC(C)CC4)ccc31)CC(C1CCCCC1)CC2` (stereo not drawn) [(6-cyclohexyl-9-ethyl-5,6,7,8-tetrahydrocarbazol-3-yl)-(4-methyl-1-piperidyl)methanone], in assay [1], the Ki turned out to be 0.0823 µM. Moreover, in assay [2], a half-maximal response (EC50) required 0.234 µM and the Emax worked out at 90%.
The matching figures for `CCN(CCCC(=O)NCCF)C(=O)c1ccc2c(c1)c1c(n2C)CCC(C2CCOCC2)C1` (stereo not drawn) [N-ethyl-N-[3-(2-fluoroethylcarbamoyl)propyl]-9-methyl-6-(oxan-4-yl)-5,6,7,8-tetrahydrocarbazole-3-carboxamide]: 0.0101 µM, 0.0092 µM and 135%.
Take `CN(CCN(C)C(=O)c1ccc2c(c1)c1c(n2C)CCC(C2CCOCC2)C1)C(=O)NC1CC1` (stereo not drawn) [N-[2-(cyclopropylcarbamoyl-methyl-amino)ethyl]-N,9-dimethyl-6-(oxan-4-yl)-5,6,7,8-tetrahydrocarbazole-3-carboxamide]: the Ki in assay [1] is 0.0775 µM. Moreover, in assay [2], a half-maximal effect (EC50) was put at 0.468 µM and the Emax came out at 110%.
Regarding `Cn1c2c(c3cc(C(=O)N4CCC[C@H](NC(=O)C5CC5)C4)ccc31)CC(C1CCOCC1)CC2` (stereo partly drawn) [N-[(3S)-1-[9-methyl-6-(oxan-4-yl)5,6,7,8-tetrahydrocarbazole-3-carbonyl]-3-piperidyl]cyclopropanecarboxamide], in assay [1], the affinity, expressed as Ki, was 0.0434 µM. In addition, in assay [2], the EC50 is 0.0872 µM and the Emax turned out to be 119%.
On to `CN(CCCC(=O)NCCO)C(=O)c1ccc2c(c1)c1c(n2C)CC[C@@H](C2CCOCC2)C1` [(R)—N-(4-(2-Hydroxyethylamino)-4-oxobutyl)-N,9-dimethyl-3-(tetrahydro-2H-pyran-4-yl)-2,3,4,9-tetrahydro-1H-carbazole-6-carboxamide], for which affinity in assay [1] was put at a Ki of 0.069 µM. In assay [2], this compound came in with an EC50 of 0.173 µM and an Emax of 120%.
The compound `CCNC(=O)CC[C@@H](CO)N(C)C(=O)c1ccc2c(c1)c1c(n2C)CC[C@@H](C2CCOCC2)C1` [(R)—N-((S)-5-(Ethylamino)-1-hydroxy-5-oxopentan-2-yl)-N,9-dimethyl-3-(tetrahydro-2H-pyran-4-yl)-2,3,4,9-tetrahydro-1H-carbazole-6-carboxamide] had a Ki in assay [1] of 0.036 µM. Also, in assay [2], a half-maximal response (EC50) required 0.079 µM and the Emax worked out at 126%.
